Assay results: patent US20090169521A1, “Vascularized cardiac tissue and methods of producing and using same” (Technion Research & Development Foundation Ltd., priority 2007, published 2009)
Entries after “also recorded” stand apart in the source; their conditions may differ.

Legend:
[1] = test system: spontaneously contracting engineered cardiac tissue; assay: Beating frequency of engineered cardiac tissue after chronotropic agents; assay type: cell-based, human; conditions: 1 μM, n=4; before application 1.6±0.3 Hz (isoproterenol), 1.7±0.2 Hz (carbamylcholine)
Method: Since the ultrastructural characterization clearly indicated the presence of gap junctions between adjacent hESC-CM (FIG. 7D), the present inventors sought to determine whether these formed gap junctions mediate impulse conduction between the hESC-CM and therefore allow synchronous contraction. The gap junction uncoupler, 1-heptanol (1 mM), was applied to the spontaneously contracting engineered cardiac tissue. […] The beating frequency of the spontaneously contracting cardiac tissue was evaluated following application of different pharmacological agents. Appropriate positive and negative chronotropic responses were observed following application of the β-agonist, isoproterenol (1 μM) and the muscarinic agonist—carbamylcholine (1 μM). Thus, isoproterenol increased the beating frequency of the engineered cardiac issue from 1.6±0.3 Hz to 2.1±0.3 Hz (p<0.05, n=4), while carbamylcholine decreased the beating frequency from 1.7±0.2 Hz to 1.4±0.1 Hz (p=0.055, n=4).

[2] = test system: spontaneously contracting engineered cardiac tissue (gap junctions between hESC-CM); assay: Laser confocal Ca2+ imaging (Fluo-4) of impulse propagation; assay type: cell-based, human; conditions: 1 mM, calcium imaging
Method: Laser scanning confocal Ca-imaging: Scaffolds were loaded with fluo-4 Ca AM (Molecular Probes) indicator to visualize free Ca^+2 levels. To this purpose, 5 mM stock solution of fluo-4 AM in DMSO was, diluted in standard hESC medium, at dilution of 1:1000 giving a final concentration of 5 μM. The non-ionic detergent Pluronic F-127 (Molecular Probes) was used to assist dispersion of the nonpolar fluo-4 AM ester in the aqueous media. Scaffolds were incubated for 45 minutes at 37° C. Following incubation the scaffolds were washed (×3) with indicator-free control tyrode solution removing any dye non-specifically associated with the cell surface. Afterwards the scaffolds were further incubated for 15 minutes allowing complete de-esterification of intracellular AM esters (according to manufacture's instructions). […]
Since the ultrastructural characterization clearly indicated the presence of gap junctions between adjacent hESC-CM (FIG. 7D), the present inventors sought to determine whether these formed gap junctions mediate impulse conduction between the hESC-CM and therefore allow synchronous contraction. […] The beating frequency of the spontaneously contracting cardiac tissue was evaluated following application of different pharmacological agents. […]

SMILES | beating frequency after application of the agent [1] | impulse propagation [2]
C[N+](C)(C)CCOC(N)=O.[Cl-] [carbamylcholine] | 1.4±0.1 Hz | 
CCCCCCCO [1-heptanol] |  | complete inhibition; also recorded: completely inhibited
CC(C)NCC(O)c1ccc(O)c(O)c1 (stereo not drawn) [isoproterenol] | 2.1±0.3 Hz | 
